Measurements from PubChem BioAssay (NCI).
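96-well plates; 48 h exposure; 5 concentrations. Endpoints by linear interpolation between flanking doses. Not reached: highest tested concentration assigned. GI50: concentration for 50% inhibition of growth. Definition used: TGI = concentration required for complete inhibition of growth.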

Legend:
Experiment in all cases: growth of human tumour cells (NCI), 48 h
TK-10 renal = test system: TK-10 renal
RXF 393 renal = test system: RXF 393 renal
HOP-62 NSCLC = test system: HOP-62 NSCLC
SK-MEL-5 melanoma = test system: SK-MEL-5 melanoma
NCI-H23 lung = test system: NCI-H23 lung
OVCAR-4 ovarian = test system: OVCAR-4 ovarian
UACC-257 melanoma = test system: UACC-257 melanoma
OVCAR-8 ovarian = test system: OVCAR-8 ovarian
HOP-92 NSCLC = test system: HOP-92 NSCLC
CCRF-CEM leukemia = test system: CCRF-CEM leukemia
RPMI-8226 leukemia = test system: RPMI-8226 leukemia
EKVX NSCLC = test system: EKVX NSCLC
SK-OV-3 ovarian = test system: SK-OV-3 ovarian
786-0 renal = test system: 786-0 renal
SW-620 colon = test system: SW-620 colon
SR leukemia = test system: SR leukemia
KM12 colon = test system: KM12 colon
HCT-15 colon = test system: HCT-15 colon
K-562 leukemia = test system: K-562 leukemia
SF-295 CNS = test system: SF-295 CNS
CAKI-1 renal = test system: CAKI-1 renal
MOLT-4 leukemia = test system: MOLT-4 leukemia
A549 NSCLC = test system: A549 NSCLC
HT29 colon = test system: HT29 colon
SN12C renal = test system: SN12C renal
SNB-75 CNS = test system: SNB-75 CNS
MDA-N = test system: MDA-N
T-47D breast = test system: T-47D breast
SF-268 CNS = test system: SF-268 CNS
SK-MEL-28 melanoma = test system: SK-MEL-28 melanoma
MCF7 breast = test system: MCF7 breast
HL-60(TB) leukemia = test system: HL-60(TB) leukemia
DU-145 prostate = test system: DU-145 prostate
MDA-MB-435 = test system: MDA-MB-435
MALME-3M melanoma = test system: MALME-3M melanoma
IGROV1 ovarian = test system: IGROV1 ovarian
HCC-2998 colon = test system: HCC-2998 colon
COLO 205 colon = test system: COLO 205 colon
UACC-62 melanoma = test system: UACC-62 melanoma
MDA-MB-231 breast = test system: MDA-MB-231 breast
OVCAR-5 ovarian = test system: OVCAR-5 ovarian
NCI-H460 lung = test system: NCI-H460 lung
NCI-H226 lung = test system: NCI-H226 lung
PC-3 prostate = test system: PC-3 prostate
LOX IMVI melanoma = test system: LOX IMVI melanoma
NCI-H522 lung = test system: NCI-H522 lung
HCT-116 colon = test system: HCT-116 colon
M14 melanoma = test system: M14 melanoma
U251 CNS = test system: U251 CNS
SK-MEL-2 melanoma = test system: SK-MEL-2 melanoma
OVCAR-3 ovarian = test system: OVCAR-3 ovarian
HS 578T breast = test system: HS 578T breast
SNB-19 CNS = test system: SNB-19 CNS
BT-549 breast = test system: BT-549 breast
SF-539 CNS = test system: SF-539 CNS
ACHN renal = test system: ACHN renal
UO-31 renal = test system: UO-31 renal
NCI/ADR-RES ovarian = test system: NCI/ADR-RES ovarian
A498 renal = test system: A498 renal

## CCN1CCNc2c3cc(OC)ccc3nc3c([N+](=O)[O-])ccc1c23
TK-10 renal
  TGI: > 10 µM
RXF 393 renal
  TGI: 2.01 µM
HOP-62 NSCLC
  TGI: 3.83 µM
SK-MEL-5 melanoma
  TGI: 2.53 µM
NCI-H23 lung
  TGI: 5.46 µM
OVCAR-4 ovarian
  TGI: 4.33 µM
UACC-257 melanoma
  TGI: 3.7 µM
OVCAR-8 ovarian
  TGI: > 10 µM
HOP-92 NSCLC
  TGI: 4.57 µM
CCRF-CEM leukemia
  TGI: 3.22 µM
RPMI-8226 leukemia
  TGI: 3.25 µM
EKVX NSCLC
  TGI: 6.13 µM
SK-OV-3 ovarian
  TGI: > 10 µM
786-0 renal
  TGI: 9.61 µM
SW-620 colon
  TGI: > 10 µM
SR leukemia
  TGI: 1.16 µM
KM12 colon
  TGI: 3.42 µM
HCT-15 colon
  TGI: 4.29 µM
K-562 leukemia
  TGI: > 10 µM
SF-295 CNS
  TGI: 5.55 µM
CAKI-1 renal
  TGI: > 10 µM
MOLT-4 leukemia
  TGI: 1.34 µM
A549 NSCLC
  TGI: > 10 µM
HT29 colon
  TGI: > 10 µM
SN12C renal
  TGI: 5.74 µM
SNB-75 CNS
  TGI: 4.38 µM
MDA-N
  TGI: 2.1 µM
T-47D breast
  TGI: > 10 µM
SF-268 CNS
  TGI: > 10 µM
SK-MEL-28 melanoma
  TGI: 5.93 µM
MCF7 breast
  TGI: 6.51 µM
HL-60(TB) leukemia
  TGI: 2.37 µM
DU-145 prostate
  TGI: > 10 µM
MDA-MB-435
  TGI: 2.2 µM
MALME-3M melanoma
  TGI: 2.29 µM
IGROV1 ovarian
  TGI: > 10 µM
HCC-2998 colon
  TGI: 2.14 µM
COLO 205 colon
  TGI: 5.39 µM
UACC-62 melanoma
  TGI: 4.58 µM
MDA-MB-231 breast
  TGI: 4.56 µM

## COc1ccc(-c2c(N)n[nH]c2-c2cc(OC)c(OC)c(OC)c2)cc1
OVCAR-5 ovarian
  GI50: 0.572 µM
  TGI: > 100 µM
NCI-H460 lung
  GI50: 0.0993 µM
  TGI: 17.2 µM
RXF 393 renal
  GI50: 0.239 µM
  TGI: 0.74 µM
NCI-H226 lung
  GI50: 0.644 µM
  TGI: > 100 µM
HOP-62 NSCLC
  GI50: 0.387 µM
  TGI: > 100 µM
PC-3 prostate
  GI50: 0.11 µM
  TGI: > 100 µM
SK-MEL-5 melanoma
  GI50: 0.113 µM
  TGI: 10 µM
NCI-H23 lung
  GI50: 0.25 µM
  TGI: 43.7 µM
LOX IMVI melanoma
  GI50: 0.528 µM
  TGI: > 100 µM
OVCAR-4 ovarian
  GI50: 1.62 µM
  TGI: > 100 µM
UACC-257 melanoma
  GI50: 23.6 µM
  TGI: > 100 µM
OVCAR-8 ovarian
  GI50: 0.424 µM
  TGI: > 100 µM
HOP-92 NSCLC
  GI50: 0.499 µM
  TGI: > 100 µM
CCRF-CEM leukemia
  GI50: 0.238 µM
  TGI: > 100 µM
RPMI-8226 leukemia
  GI50: 0.331 µM
  TGI: 22.5 µM
NCI-H522 lung
  GI50: 0.223 µM
  TGI: 24 µM
EKVX NSCLC
  GI50: 3.86 µM
  TGI: > 100 µM
SK-OV-3 ovarian
  GI50: 0.211 µM
  TGI: 52.4 µM
HCT-116 colon
  GI50: 0.173 µM
  TGI: > 38.8 µM
M14 melanoma
  GI50: 0.135 µM
  TGI: > 100 µM
786-0 renal
  GI50: 0.388 µM
  TGI: 35.6 µM
SW-620 colon
  GI50: 0.0587 µM
  TGI: > 100 µM
U251 CNS
  GI50: 0.276 µM
  TGI: > 100 µM
SR leukemia
  GI50: 0.0308 µM
  TGI: 29.1 µM
KM12 colon
  GI50: 0.0594 µM
  TGI: 18 µM
SK-MEL-2 melanoma
  GI50: 0.215 µM
  TGI: > 100 µM
HCT-15 colon
  GI50: 0.285 µM
  TGI: > 100 µM
K-562 leukemia
  GI50: 0.043 µM
  TGI: > 100 µM
SF-295 CNS
  GI50: 0.0758 µM
  TGI: > 100 µM
CAKI-1 renal
  GI50: 0.381 µM
  TGI: > 100 µM
MOLT-4 leukemia
  GI50: 0.275 µM
  TGI: > 100 µM
A549 NSCLC
  GI50: 0.147 µM
  TGI: > 100 µM
HT29 colon
  GI50: 0.247 µM
  TGI: 3.29 µM
OVCAR-3 ovarian
  GI50: 0.04 µM
  TGI: 0.187 µM
SN12C renal
  GI50: 0.635 µM
  TGI: > 100 µM
HS 578T breast
  GI50: 0.0782 µM
  TGI: 0.593 µM
SNB-75 CNS
  GI50: 0.216 µM
  TGI: > 100 µM
SNB-19 CNS
  GI50: 0.403 µM
  TGI: > 100 µM
BT-549 breast
  GI50: 1.41 µM
  TGI: > 29 µM
SF-539 CNS
  GI50: 0.202 µM
  TGI: 0.865 µM
T-47D breast
  GI50: 25.3 µM
  TGI: > 100 µM
SF-268 CNS
  GI50: 0.676 µM
  TGI: > 48.4 µM
SK-MEL-28 melanoma
  GI50: 5.57 µM
  TGI: > 100 µM
MCF7 breast
  GI50: 0.0732 µM
  TGI: > 100 µM
HL-60(TB) leukemia
  GI50: 0.0474 µM
  TGI: 0.516 µM
ACHN renal
  GI50: 2.03 µM
  TGI: > 100 µM
DU-145 prostate
  GI50: 0.272 µM
MDA-MB-435
  GI50: 0.0262 µM
  TGI: 0.0907 µM
MALME-3M melanoma
  GI50: 22.5 µM
  TGI: > 100 µM
IGROV1 ovarian
  GI50: 0.769 µM
  TGI: 60.5 µM
UO-31 renal
  GI50: 0.926 µM
  TGI: > 68.7 µM
HCC-2998 colon
  GI50: 0.286 µM
  TGI: 19.8 µM
NCI/ADR-RES ovarian
  GI50: 0.2 µM
  TGI: 2.22 µM
COLO 205 colon
  GI50: 0.363 µM
UACC-62 melanoma
  GI50: 0.14 µM
  TGI: > 100 µM
MDA-MB-231 breast
  GI50: 0.56 µM
  TGI: > 100 µM
A498 renal
  GI50: 0.0549 µM
  TGI: 0.615 µM

## CC1(C)CC2C(C1=O)C1(C)CCCC2(C)C1=O (stereo unspecified)
OVCAR-5 ovarian
  TGI: > 100 µM
NCI-H460 lung
  TGI: > 100 µM
TK-10 renal
  TGI: > 100 µM
NCI-H226 lung
  TGI: > 100 µM
HOP-62 NSCLC
  TGI: > 100 µM
PC-3 prostate
  TGI: > 100 µM
SK-MEL-5 melanoma
  TGI: > 100 µM
NCI-H23 lung
  TGI: > 100 µM
LOX IMVI melanoma
  TGI: > 100 µM
OVCAR-4 ovarian
  TGI: > 100 µM
UACC-257 melanoma
  TGI: > 100 µM
OVCAR-8 ovarian
  TGI: > 100 µM
HOP-92 NSCLC
  TGI: > 100 µM
CCRF-CEM leukemia
  TGI: > 100 µM
RPMI-8226 leukemia
  TGI: > 100 µM
EKVX NSCLC
  TGI: > 100 µM
SK-OV-3 ovarian
  TGI: > 100 µM
HCT-116 colon
  TGI: > 100 µM
M14 melanoma
  TGI: > 100 µM
786-0 renal
  TGI: > 100 µM
SW-620 colon
  TGI: > 100 µM
U251 CNS
  TGI: > 100 µM
SR leukemia
  TGI: > 100 µM
KM12 colon
  TGI: > 100 µM
SK-MEL-2 melanoma
  TGI: > 100 µM
HCT-15 colon
  TGI: > 100 µM
K-562 leukemia
  TGI: > 100 µM
SF-295 CNS
  TGI: > 100 µM
CAKI-1 renal
  TGI: > 100 µM
MOLT-4 leukemia
  TGI: > 100 µM
A549 NSCLC
  TGI: > 100 µM
HT29 colon
  TGI: > 100 µM
OVCAR-3 ovarian
  TGI: > 100 µM
SN12C renal
  TGI: > 100 µM
HS 578T breast
  TGI: > 100 µM
SNB-75 CNS
  TGI: > 100 µM
SF-539 CNS
  TGI: > 100 µM
MDA-N
  TGI: > 100 µM
T-47D breast
  TGI: > 100 µM
SF-268 CNS
  TGI: > 100 µM
SK-MEL-28 melanoma
  TGI: > 100 µM
MCF7 breast
  TGI: > 100 µM
HL-60(TB) leukemia
  TGI: > 100 µM
ACHN renal
  TGI: > 100 µM
DU-145 prostate
  TGI: > 100 µM
MDA-MB-435
  TGI: > 100 µM
MALME-3M melanoma
  TGI: > 100 µM
IGROV1 ovarian
  TGI: > 100 µM
UO-31 renal
  TGI: > 100 µM
HCC-2998 colon
  TGI: > 100 µM
NCI/ADR-RES ovarian
  TGI: > 100 µM
COLO 205 colon
  TGI: > 100 µM
UACC-62 melanoma
  TGI: > 100 µM
MDA-MB-231 breast
  TGI: > 100 µM
